# Measured values from patent US5128338A, “Imidazo [1,2-c] quinazoline compounds” (priority 1990, dated 1992).
# Assays:
# porcine coronary = assay: Porcine coronary relaxation (PGF2α-precontracted coronary segments); set-up: species or system pig (Yucatan mini pig); settings: for EC20 / EC50: Sus scrofa, porcine coronary segments, 37° C., PGF2α 4.10^-6 M, corrected for DMSO; for EC20: read-out: DE20, effect on coronary tension induced by PGF2α; for EC50: read-out: DE50, effect on coronary tension induced by PGF2α
# Method: All the products studied were dissolved in DMSO at a concentration of 10^-2 M, then diluted to the desired concentrations in the experimental media. All of the ED20, ED50 and K0.5 values were corrected for the values obtained with DMSO under the same conditions of dilution.
# Coronaries were taken on the heart of pigs (Yucatan mini pig), anesthetized under stresnil and pentobarbital. Proximal segments of the coronary were placed in an organ tank filled with Ringer solution at 37° C. The segments were tightened progressively to a base tension of around 6 g and contracted by the addition of PGF2α at a concentration of 4.10^-6 M. The potential of the products of the present invention to relax the coronary artery were then tested.
# All of the compounds were tested for their capacity to relax the porcine coronary precontracted by PGF2α.
# [1] = biological target: T1, peripheral receptors for benzodiazepines ([^3 H]-PK 11195) (Rattus norvegicus, UniProt P16257); assay: Displacement of [3H]-PK 11195, rat heart microsomal fractions; assay type: binding; settings: corrected for DMSO, read-out: K0.5, peripheral receptors, [^3 H]--PK 11195;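 further: radioligand binding with bound label split from free by vacuum filtration, then quantified through liquid scintillation counting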
# T1 construct: on microsomal fractions from rat heart; from tissue; host or cells: rat heart, microsomal fractions
# [2] = biological target: T2, peripheral receptors for benzodiazepines ([^3 H]-R05-4864) (Rattus norvegicus, UniProt P16257); assay: Displacement of [3H]-R05-4864, rat heart microsomal fractions; assay type: binding; settings: corrected for DMSO, read-out: K0.5, peripheral receptors, [^3 H]--RO 54864;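 further: Read-out is filter-retained bound radioligand, separated from free ligand by vacuum filtration over GF/C and counted by liquid scintillation, with compounds first dissolved in DMSO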
# T2 construct: on microsomal fractions from rat heart; from tissue; host or cells: rat heart, microsomal fractions
# [3] = biological target: central receptors for benzodiazepines; assay: Displacement of [3H]-RO 151788, rat central nervous system microsomal fractions; assay type: binding; settings: corrected for DMSO, read-out: K0.5, central receptors, [^3 H]--RO 151788
Structure (SMILES),EC20 (porcine coronary) [µM],EC50 (porcine coronary) [µM],IC50 [1] [µM],IC50 [2] [µM],IC50 [3] [µM],level of relaxation obtained as well as the 50% effect value (K0.5) obtained by displacement (porcine coronary; overall judgement of relaxation and K0.5)
"CCOC(=O)Cn1c(=O)n2cc(-c3ccccc3)nc2c2ccccc21 [Example 13, 2-phenyl-6-ethoxycarbonylmethyl-5-oxo-5,6-dihydroimidazo[1,2-c]quinazoline]",84.2,7.15,100,> 100,> 100,–
"CCN(CC)C(=O)Cn1c(=O)n2cc(-c3ccc(Cl)cc3)nc2c2ccccc21 [Example 15, 2-(p-chlorophenyl)-6-N,N-diethylaminocarbonylmethyl-5-oxo-5,6-dihydroimidazo[1,2-c]quinazoline]",45.4,6.12,1.5,~100,> 100,–
"CCN(CC)C(=O)Cn1c(=O)n2cc(-c3cccc(Cl)c3)nc2c2ccccc21 [Example 19, 2-(m-chlorophenyl)-6-N,N-diethylaminocarbonylmethyl-5-oxo-5,6-dihydroimidazo[1,2-c]quinazoline]",23.6,2.36,0.058,0.05,> 100,–
"CCN(CC)C(=O)Cn1c(=O)n2cc(-c3ccc(OC)cc3)nc2c2ccccc21 [Example 17, 2-(p-methoxyphenyl)-6-N,N-diethylaminocarbonylmethyl-5-oxo-5,6-dihydroimidazo[1,2-c]quinazoline]",2.22,0.45,0.14,0.12,100,particularly favorable
"CCN(CC)C(=O)Cn1c(=O)n2cc(-c3ccco3)nc2c2ccccc21 [Example 21, 2-(2-furyl)-6-N,N-diethylaminocarbonylmethyl-5-oxo-5,6-dihydroimidazo[1,2-c]quinazoline]",3.89,1,0.26,0.58,> 100,–
"CCOC(=O)CCCn1c(=O)n2cc(-c3ccccc3)nc2c2ccccc21 [Example 27, 2-phenyl-6-ethoxycarbonylpropyl-5-oxo-5,6-dihydroimidazo[1,2-c]quinazoline]",> 100,> 100,> 100,60,100,–
"CC(C)NC(=O)Cn1c(=O)n2cc(-c3ccccc3)nc2c2ccccc21 [Example 14, 2-phenyl-6-N-isopropylaminocarbonylmethyl-5-oxo-5,6-dihydroimidazo[1,2-c]quinazoline]",386,13.8,> 100,> 100,> 100,–
